Source: the supplement of paper PMC8967900

Experiments:
Experiment in all cases: selective drug sensitivity score (sDSS, relative to normal bone marrow) (sDSS (score)); higher = more potent and effective on the cell line relative to normal bone marrow cells
Conditions in all cases: 72 h
KOPN-8 = tested on: KOPN-8
SEM cells = tested on: SEM cells
TMD5 = tested on: TMD5
ALL-PO = tested on: ALL-PO
SUP-B15 = tested on: SUP-B15
COG-LL-355h = tested on: COG-LL-355h
P30-OHKUBO = tested on: P30-OHKUBO
KASUMI-2 = tested on: KASUMI-2
MHH-CALL-4 = tested on: MHH-CALL-4
KARPAS-45 = tested on: KARPAS-45
MHH-CALL-2 = tested on: MHH-CALL-2
COG-LL-394h = tested on: COG-LL-394h
COG-LL-317 = tested on: COG-LL-317
RPMI-8402 = tested on: RPMI-8402
380 = tested on: 380
NALM-6 = tested on: NALM-6
ALL-SIL = tested on: ALL-SIL
HAL-01 = tested on: HAL-01
PEER = tested on: PEER
MN-60 = tested on: MN-60
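Note: ALL cell lines in 384-well plates, five doses spanning 10,000-fold, each plate scaled between vehicle and 100 µmol/L benzalkonium chloride controls, sDSS an adapted area-under-curve metric.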

| Structure (SMILES) | selective drug sensitivity score (KOPN-8) | selective drug sensitivity score (SEM cells) | selective drug sensitivity score (TMD5) | selective drug sensitivity score (ALL-PO) | selective drug sensitivity score (SUP-B15) | selective drug sensitivity score (COG-LL-355h) | selective drug sensitivity score (P30-OHKUBO) | selective drug sensitivity score (KASUMI-2) | selective drug sensitivity score (MHH-CALL-4) | selective drug sensitivity score (KARPAS-45) | selective drug sensitivity score (MHH-CALL-2) | selective drug sensitivity score (COG-LL-394h) | selective drug sensitivity score (COG-LL-317) | selective drug sensitivity score (RPMI-8402) | selective drug sensitivity score 380 | selective drug sensitivity score (NALM-6) | selective drug sensitivity score (ALL-SIL) | selective drug sensitivity score (HAL-01) | selective drug sensitivity score (PEER) | selective drug sensitivity score (MN-60) |
| --- | --- | --- | --- | --- | --- | --- | --- | --- | --- | --- | --- | --- | --- | --- | --- | --- | --- | --- | --- | --- |
| C1=N/C2=N/c3ccc(OCCN4CCCC4)c(c3)COC/C=C/COCc3cccc(c3)C(=C1)N2 [Pacritinib] (top concentration 10000 nM) | -4.7 | 1.5 | -9.2 | -0.4 | -3.7 | 2.9 | 1.2 | -2.3 | -5.3 | -2.9 | -7.9 | -4 | -8.3 | -5.7 | -8.7 | -2.3 | -3.6 | -0.6 | -5.6 | -9.6 |
| Cc1[nH]c2ccccc2c1CCNCc1ccc(/C=C/C(=O)NO)cc1 [Panobinostat] (top concentration 1000 nM) | 18.2 | 3.94 | 2.74 | 6.14 | 10.2 | 4.84 | 6.64 | 14.3 | 4.94 | 10.7 | 8.44 | 2.84 | 6.34 | 4.14 | 12.1 | 4.14 | 6.04 | -3.26 | 4.34 | -1.46 |
| Cc1ccc(Nc2nccc(N(C)c3ccc4c(C)n(C)nc4c3)n2)cc1S(N)(=O)=O [Pazopanib] (top concentration 10000 nM) | 5.64 | 4.54 | 4.54 | -1.06 | -0.96 | -1.26 | 5.14 | 3.44 | -1.26 | 1.74 | 6.24 | -0.76 | -1.26 | 2.44 | -0.86 | -1.26 | 2.64 | -0.16 | 2.84 | -0.86 |
| Nc1nc2[nH]cc(CCc3ccc(C(=O)N[C@@H](CCC(=O)O)C(=O)O)cc3)c2c(=O)[nH]1 [Pemetrexed] (top concentration 10000 nM) | 30.2 | 25.6 | -0.72 | 30.9 | 28 | 4.28 | 26.4 | 19.3 | 15.2 | 9.98 | 18.7 | 1.58 | 25.1 | 24.8 | 22.6 | 24.5 | 15.5 | 20.8 | 15.5 | 11.6 |
| Cc1ccc(C(=O)Nc2ccc(CN3CCN(C)CC3)c(C(F)(F)F)c2)cc1C#Cc1cnc2cccnn12 [Ponatinib] (top concentration 1000 nM) | 27.1 | 19.4 | 19 | 14.1 | 31.8 | 5.52 | 9.02 | -1.78 | 4.72 | 5.02 | 5.92 | 1.12 | -1.98 | 2.72 | 9.52 | 0.82 | 41.7 | 8.42 | 18.6 | -0.58 |
| C[C@]12C=CC(=O)C=C1CC[C@@H]1[C@@H]2[C@@H](O)C[C@@]2(C)[C@H]1CC[C@]2(O)C(=O)CO [Prednisolone] (top concentration 10000 nM) | 22.6 | 2.9 | 4.8 | 28.9 | 28.1 | 20.6 | 15 | 13.5 | 25.5 | 12.3 | 23.1 | -3 | 2.6 | -1.3 | 23.8 | 15.9 | 8.9 | -2.6 | -3 | -3 |
| CC(C)(C)c1cc(NC(=O)Nc2ccc(-c3cn4c(n3)sc3cc(OCCN5CCOCC5)ccc34)cc2)no1 [Quizartinib] (top concentration 1000 nM) | 7.58 | 20.7 | -1.52 | 14.1 | 0.38 | -1.02 | 0.68 | -1.52 | -1.52 | 3.68 | 2.38 | -0.32 | -0.02 | 1.18 | -1.52 | 1.38 | 3.48 | 3.18 | -0.02 | -1.52 |
| Nc1cc(F)ccc1NC(=O)/C=C/c1cnn(C/C=C/c2ccccc2)c1 [RGFP966] (top concentration 10000 nM) | 11.5 | 18.7 | 8.54 | 3.64 | 18 | 4.84 | 14 | 8.24 | 2.94 | 14.6 | 7.84 | 2.34 | 16.6 | 10.5 | 12.9 | 13.3 | 12.4 | 12.7 | 10.2 | 3.04 |
| CNC(=O)c1cc(Oc2ccc(NC(=O)Nc3ccc(Cl)c(C(F)(F)F)c3)c(F)c2)ccn1 [Regorafenib] (top concentration 10000 nM) | 10.9 | 10 | 2.74 | 7.14 | 9.14 | 6.74 | 4.04 | 10 | 2.74 | 3.44 | 1.64 | 5.94 | 2.54 | 3.44 | 8.54 | 4.04 | 10 | 2.04 | 7.64 | 1.34 |
| CN(C)Cc1ccc(S(=O)(=O)n2ccc(/C=C/C(=O)NO)c2)cc1 [Resminostat] (top concentration 10000 nM) | 10.1 | 8.64 | 0.34 | 6.34 | 9.74 | 6.04 | 7.94 | 11.7 | 7.04 | 8.34 | 8.14 | 2.04 | 5.14 | 7.24 | 7.44 | 1.34 | 6.64 | 1.84 | 8.24 | 2.34 |
| COc1cc(OC)c(/C=C/S(=O)(=O)Cc2ccc(OC)c(NCC(=O)O)c2)c(OC)c1 [Rigosertib] (top concentration 10000 nM) | 18.4 | 17.3 | 8.16 | 11.2 | 14.6 | 4.16 | 16.9 | 14.6 | 8.26 | 15.2 | 15.2 | 6.76 | 14.3 | 13.3 | 14.3 | 16.1 | 13.1 | 14.5 | 15.9 | 8.96 |
| COc1ccc(CCc2nc3cc(-c4c(C)noc4C)ccc3n2C[C@H](C)N2CCOCC2)cc1Cl [SGC-CBP30] (top concentration 25000 nM) | 6.18 | 6.48 | -2.62 | 4.38 | 6.28 | 9.88 | 1.88 | -2.12 | 1.68 | 4.98 | 5.88 | 5.38 | 5.98 | 5.08 | 0.38 | 0.08 | 4.68 | 3.98 | 4.08 | 2.78 |
| CCS(=O)(=O)c1cccc(-c2cc(C(=O)NC3CCN(C)CC3)c(C)c3[nH]c4ncc(C)cc4c23)c1 [TAK-901] (top concentration 1000 nM) | 10.8 | 9.36 | 7.16 | 7.76 | 11 | 6.16 | 12.8 | 7.56 | 3.16 | 8.86 | 7.26 | 3.66 | 11.7 | 6.56 | 10.4 | 9.66 | 15.3 | -2.74 | 12.4 | -2.64 |
| Nc1nc(NC2CC2)cc(-c2cccc(Cl)c2Cl)n1 [TH588] (top concentration 25000 nM) | 7.22 | 8.62 | -0.28 | 10.5 | 7.62 | 2.42 | 4.02 | -0.58 | -0.58 | 8.12 | -0.58 | -0.58 | 7.72 | 5.72 | -0.58 | -0.58 | 14.7 | -0.58 | 12 | -0.58 |
| CC(=O)Nc1ccc(C(=O)Nc2ccccc2N)cc1 [Tacedinaline] (top concentration 1000 nM) | 15.5 | 4.08 | 10.6 | -0.02 | 4.58 | -0.02 | 2.58 | -0.02 | 9.18 | 2.08 | 7.68 | -0.02 | -0.02 | 1.58 | 12.2 | -0.02 | 6.08 | 9.18 | 0.68 | -0.02 |
| Cn1ncnc1[C@H]1c2n[nH]c(=O)c3cc(F)cc(c23)N[C@@H]1c1ccc(F)cc1 [Talazoparib] (top concentration 1000 nM) | 27.5 | 0.78 | -1.52 | 4.78 | 20.1 | 8.28 | 9.68 | 13.2 | 10.2 | -2.12 | 9.48 | -0.62 | 19.7 | 0.58 | 21.4 | 3.78 | 3.48 | 6.58 | -3.72 | -4.92 |
| COc1cccc2c1c(O)c(C(=O)N(C)c1ccc(C(F)(F)F)cc1)c(=O)n2C [Tasquinimod] (top concentration 10000 nM) | -0.42 | -0.42 | -0.42 | -0.32 | 2.78 | -0.42 | -0.42 | -0.42 | 0.68 | -0.22 | 0.88 | -0.42 | 0.28 | -0.42 | -0.42 | -0.42 | 3.48 | -0.42 | -0.32 | -0.22 |
| Nc1nc2[nH]cnc2c(=S)[nH]1 [Thioguanine] (top concentration 10000 nM) | 13.2 | 13 | -3.46 | 11.2 | 19.2 | 4.04 | 11.6 | 2.54 | 4.34 | 15 | 11.9 | 2.44 | 23 | 14.9 | 6.04 | 10.2 | 12.8 | 9.44 | 13.1 | 10 |
